Reference: US20260327224A1, “SUBSTITUTED PYRIDOTRIAZOLE COMPOUND, AND PREPARATION METHOD THEREFOR AND USE THEREOF” (ORIGIANT PHARMACEUTICAL CO., LTD., priority 2023, published 2026)

target: T1, RIPK1 kinase (Homo sapiens, UniProt Q13546); assay: In vitro RIPK1 kinase assay (Eurofins Kinase Profiler); type: biochemical; details: Inhibitory Activity Against RIPK1 Kinase
T1 construct: Eurofins
T1 sequence (Q13546 1-671): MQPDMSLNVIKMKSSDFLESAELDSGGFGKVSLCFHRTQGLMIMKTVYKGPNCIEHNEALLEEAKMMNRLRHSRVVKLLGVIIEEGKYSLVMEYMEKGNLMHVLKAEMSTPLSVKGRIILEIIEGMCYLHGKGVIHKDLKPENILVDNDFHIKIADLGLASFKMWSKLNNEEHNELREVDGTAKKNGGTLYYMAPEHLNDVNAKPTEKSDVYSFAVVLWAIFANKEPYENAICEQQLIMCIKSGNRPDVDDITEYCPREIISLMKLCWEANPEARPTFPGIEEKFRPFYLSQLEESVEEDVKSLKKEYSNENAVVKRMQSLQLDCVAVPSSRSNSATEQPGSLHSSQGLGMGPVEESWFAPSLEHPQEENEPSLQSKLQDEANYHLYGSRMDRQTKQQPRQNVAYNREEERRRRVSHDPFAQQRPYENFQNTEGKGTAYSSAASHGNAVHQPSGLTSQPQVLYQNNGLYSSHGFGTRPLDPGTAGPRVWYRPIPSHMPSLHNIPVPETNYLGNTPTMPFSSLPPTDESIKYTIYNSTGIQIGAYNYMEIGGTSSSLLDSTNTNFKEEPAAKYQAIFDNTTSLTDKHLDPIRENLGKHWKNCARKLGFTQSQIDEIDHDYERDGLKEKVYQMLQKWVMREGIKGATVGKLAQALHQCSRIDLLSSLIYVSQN
Method: In Vitro RIPK1 Kinase Assay:
This assay was completed using the Kinase Profiler service provided by Eurofins. The experimental method was as follows: The small molecule compound to be tested (0.001-10 M) and the protein kinase to be tested were incubated with a buffer containing a substrate, 10 mM magnesium acetate, and [γ-^33P-ATP]. The reaction was initiated by adding a Mg\ATPmix. After incubation at room temperature for a period of time, a 3% phosphate solution was added to the buffer to terminate the reaction. Subsequently, 10 μL of the reaction mixture was quantitatively pipetted and dropped onto P30 filter paper. The paper was washed three times with 75 mM phosphate solution and once with methanol. After drying, scintillation fluid was added for scinticounting. The inhibitory activity of the compound was expressed as the half-maximal inhibitory concentration (IC50). The IC50 values were derived by fitting the inhibition rates corresponding to the respective concentration gradients.

| Compound | IC50 [nM] |
| --- | --- |
| C[C@H](NC(=O)c1cn(C)c2ccc(-c3ccn4nc(NC(=O)CN5CCOCC5(C)C)nc4c3)cc12)c1ccc(F)cc1 [Compound 32] | 10 to 100 |

system: HT-29 cells (colon cancer cells); assay: In vitro assay for protection of HT-29 cells from necroptosis (TNFα/Smac mimetic/Z-VAD-FMK, CCK-8); type: cell-based; details: Homo sapiens, Protective Activity Against Necroptosis, TNFα/Smac mimetic/Z-VAD-FMK induced, 24 h
Summary of the method: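 Cells seeded overnight received compound in triplicate, then were induced with TNFα/Smac mimetic/Z-VAD-FMK for 24 h. Viability was read by CCK-8 absorbance at 495 nm after 1-3 h; protection rate normalized to solvent and medium-only controls, EC50 from fitted curve.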

| Compound | EC50 [nM] |
| --- | --- |
| C[C@H](NC(=O)c1cn(C)c2ccc(-c3ccn4nc(NC(=O)CN5CCOCC5(C)C)nc4c3)cc12)c1ccc(F)cc1 [Compound 32] | < 1 |
| Cn1cc(C(=O)N2N=CCC2c2ccc(F)cc2)c2cc(-c3ccn4nc(NC(=O)N5CCOCC5)nc4c3)ccc21 (centres unmarked) [Compound 172] | 1 to 10 |
| C[C@@H](c1ccc(F)cc1)N(C)C(=O)c1cn(C)c2ccc(-c3ccn4nc(NC(=O)CN(C)C)nc4c3)cc12 [Compound 174] | < 1 |
| C[C@@H](c1ccc(F)cc1)N(C)C(=O)c1cn(C)c2ccc(-c3ccn4nc(NC(=O)[C@@H]5CCCO5)nc4c3)cc12 [Compound 176] | < 1 |
| CC(C(=O)Nc1cn(C)c2ccc(-c3ccn4nc(NC(=O)C5CC5)nc4c3)cc12)c1ccc(F)cc1 (centres unmarked) [Compound 177] | 10 to 100 |
| CC(C(=O)Nc1cn(C)c2ccc(-c3ccn4nc(NC(=O)[C@H]5CCCO5)nc4c3)cc12)c1ccc(F)cc1 (some centres unmarked) [Compound 178] | 100 to 1000 |
| CC(C(=O)Nc1nn(C)c2ccc(-c3ccn4nc(NC(=O)CN(C)C)nc4c3)cc12)c1ccc(F)cc1 (centres unmarked) [Compound 180] | 1000 to 10000 |
| CC(C(=O)Nc1nn(C)c2ccc(-c3ccn4nc(NC(=O)c5cnn(C)c5)nc4c3)cc12)c1ccc(F)cc1 (centres unmarked) [Compound 181] | 1000 to 10000 |
| CC(C(=O)Nc1nn(C)c2ccc(-c3ccn4nc(NC(=O)C5CC5)nc4c3)cc12)c1ccc(F)cc1 (centres unmarked) [Compound 182] | 10 to 100 |
| Cn1cc(C(=O)N[C@@H](CF)c2cccc(F)c2)c2cc(-c3ccn4nc(NC(=O)[C@H]5CCCO5)nc4c3)ccc21 [Compound 183] | < 1 |
| Cn1cc(C(=O)N[C@@H]2C[C@H]2c2ccc(F)c(F)c2)c2cc(-c3ccn4nc(NC(=O)[C@H]5CCCO5)nc4c3)ccc21 [Compound 184] | 100 to 1000 |
| Cn1cc(C(=O)N2CCC[C@H]2c2ccc(F)cc2)c2cc(-c3ccn4nc(NC(=O)C5CCOC5)nc4c3)ccc21 (some centres unmarked) [Compound 186] | < 1 |
| Cn1cc(C(=O)Nc2nc3cc(-c4ccc5c(c4)c(C(=O)N[C@@H](CF)c4ccc(F)cc4)nn5C)ccn3n2)cn1 [Compound 187] | < 1 |
| Cn1nc(C(=O)N[C@@H](CF)c2ccc(F)cc2)c2cc(-c3ccn4nc(NC(=O)C5CCOC5)nc4c3)ccc21 (some centres unmarked) [Compound 188] | < 1 |
| Cn1nc(C(=O)N[C@@H](CF)c2ccc(F)cc2)c2cc(-c3ccn4nc(NC(=O)N5CCOCC5)nc4c3)ccc21 [Compound 189] | < 1 |
| Cn1nc(C(=O)N[C@@H](CF)c2ccc(F)cc2)c2cc(-c3ccn4nc(NC(=O)C5CC5)nc4c3)ccc21 [Compound 190] | < 1 |
| C[C@H](NC(=O)c1nn(C)c2ccc(-c3ccn4nc(NC(=O)c5cnn(C)c5)nc4c3)cc12)c1ccc(F)cc1 [Compound 191] | < 1 |
| C[C@H](NC(=O)c1nn(C)c2ccc(-c3ccn4nc(NC(=O)C5CC5)nc4c3)cc12)c1ccc(F)cc1 [Compound 192] | < 1 |
| C[C@H](NC(=O)c1nn(C)c2ccc(-c3ccn4nc(NC(=O)[C@H]5CCCO5)nc4c3)cc12)c1ccc(F)cc1 [Compound 193] | < 1 |

| Compound | EC50 [nM] |
| --- | --- |
| C[C@H](NC(=O)c1nn(C)c2ccc(-c3ccn4nc(NC(=O)N5CCOCC5)nc4c3)cc12)c1ccc(F)cc1 [Compound 195] | < 1 |
| C[C@H](NC(=O)c1nn(C)c2ccc(-c3ccn4nc(NC(=O)CN5CCOCC5)nc4c3)cc12)c1ccc(F)cc1 [Compound 196] | < 1 |
| CC[C@H](NC(=O)c1cn(C)c2ccc(-c3ccn4nc(NC(=O)CN5CCOCC5)nc4c3)cc12)c1ccc(F)cc1 [Compound 197] | < 1 |
| CCn1cc(C(=O)N[C@@H](CF)c2ccc(F)cc2)c2cc(-c3ccn4nc(NC(=O)N5CCOCC5)nc4c3)ccc21 [Compound 200] | < 1 |
| CN(C(=O)c1cn(C)c2ccc(-c3ccn4nc(NC(=O)C5CC5)nc4c3)cc12)[C@H]1CCc2cc(F)ccc21 [Compound 205] | 1 to 10 |
| Cn1cc(C(=O)Nc2nc3cc(-c4ccc5c(c4)c(C(=O)N4CCC[C@H]4c4ccc(F)cc4)cn5C)ccn3n2)cn1 [Compound 207] | < 1 |
| CC(c1ccc(F)cc1)n1cnc(-c2cn(C)c3ccc(-c4ccn5nc(NC(=O)c6cnn(C)c6)nc5c4)cc23)n1 (centres unmarked) [Compound 208] | 100 to 1000 |
| CC(c1ccc(F)cc1)n1cnc(-c2cn(C)c3ccc(-c4ccn5nc(NC(=O)C6CC6F)nc5c4)cc23)n1 (centres unmarked) [Compound 209] | 100 to 1000 |
| CC(c1ccc(F)cc1)n1cnc(-c2cn(C)c3ccc(-c4ccn5nc(NC(=O)C6CC6)nc5c4)cc23)n1 (centres unmarked) [Compound 210] | 100 to 1000 |
| Cn1cc(C2=NC(c3ccc(F)cc3)CO2)c2cc(-c3ccn4nc(NC(=O)C5CC5F)nc4c3)ccc21 (centres unmarked) [Compound 211] | 10 to 100 |
| Cn1cc(C2=NC(c3ccc(F)cc3)CO2)c2cc(-c3ccn4nc(NC(=O)C5CC5)nc4c3)ccc21 (centres unmarked) [Compound 212] | 10 to 100 |
| Cn1cc(C(=O)Nc2nc3cc(-c4ccc5c(c4)c(C4=NC(c6ccc(F)cc6)CO4)cn5C)ccn3n2)cn1 (centres unmarked) [Compound 213] | 10 to 100 |
| COCCn1cc(C(=O)N[C@@H](CF)c2ccc(F)cc2)c2cc(-c3ccn4nc(NC(=O)N5CCOCC5)nc4c3)ccc21 [Compound 214] | 10 to 100 |
| COCCn1cc(C(=O)N[C@@H](CF)c2ccc(F)cc2)c2cc(-c3ccn4nc(NC(=O)CC#N)nc4c3)ccc21 [Compound 215] | 10 to 100 |
| COC(C)C(=O)Nc1nc2cc(-c3ccc4c(c3)c(-c3nncn3C(C)c3ccc(F)cc3)cn4C)ccn2n1 (centres unmarked) [Compound 216] | 10 to 100 |
| CC(c1ccc(F)cc1)n1cnnc1-c1cn(C)c2ccc(-c3ccn4nc(NC(=O)C5CCOC5)nc4c3)cc12 (centres unmarked) [Compound 217] | 10 to 100 |
| C[C@H](NC(=O)c1cn(C)c2ccc(-c3ccn4nc(N5CCOCC5=O)nc4c3)cc12)c1ccc(F)cc1 [Compound 218] | 10 to 100 |
| C[C@H](NC(=O)c1cn(C)c2ccc(-c3ccn4nc(N5CCOCC5)nc4c3)cc12)c1ccc(F)cc1 [Compound 219] | 1 to 10 |
